≈ marks a conversion by molar mass, not a printed value.
Key:
[1] = test system: Streptococcus sp.; test: In vitro antibacterial evaluation: minimum inhibitory concentration (MIC), broth dilution method; format: cell-based
Summary of the method: (§1)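 Values are minimum inhibitory concentrations, meaning the smallest antibiotic concentration that stops growth of the organism. They come from broth dilution in Muller-Hinton II […] per NCCLS guidance (M7-A2), using 5×10^5 CFU/mL and concentrations from 64 to 0.06 μg/mL.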

[2] = test system: Staphylococcus aureus-SMITH (GC 4543); test: Acute lethal infection in mice (ED50); format: in vivo; conditions: female CD-1 mice, intraperitoneal challenge, intravenous dose 30 min. after infection, 7 day survival ratios
Summary of the method: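 Bacteria suspended in Trypticase Soy Broth or hog gastric mucin are injected intraperitoneally into female CD-1 mice at a dose killing untreated animals within 24-48 hr. Thirty minutes later, test agent is administered intravenously. Survival at day 7 is scored.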

[3] = Anatomic pathology (heart and kidney histopathology) in mice; format: in vivo, CD-1 mice; conditions: 20 mg/kg intravenously daily for 9 days, microscopic histopathology on day 10
Procedure: 20-day-old CD-1 mice were divided into a vehicle control group (5 mice) and a treatment group (5 mice). Samples of glycopeptide antibiotics were administered at 20 mg/kg intravenously daily for 9 days.
Samples of tissues from necropsied mice were formalin-fixed, paraffin-embedded, sectioned, stained with hematoxylin and eosin, and examined microscopically. Histopathologic findings were recorded. These findings were subjectively graded on a scale corresponding to slight, mild, moderate, marked and severe as compared to untreated controls.

[4] = test system: Escherichia coli; test: In vitro antibacterial evaluation: minimum inhibitory concentration (MIC), broth dilution method; format: cell-based; conditions: strain GC 4560
Summary of the method: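 Test strains, among them recent clinical isolates carrying methicillin, penicillin and/or vancomycin resistance, were inoculated at 5×10^5 CFU/mL. A broth dilution series spanning 64-0.06 μg/mL in Muller-Hinton II […] (NCCLS M7-A2) defined the MIC as the lowest growth-inhibiting concentration.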

[5] = test system: Enterococcus sp.; test: as above; format: cell-based; conditions: for MIC Enterococcus avium (GC 4558): strain GC 4558; for MIC Enterococcus faecalis (GC 4553): strain GC 4553
Summary of the method: as §1

[6] = test system: Staphylococcus sp.; test: as above; format: cell-based; conditions: broth dilution, 18 hours at 35° C.
Summary of the method: as §1

[7] = Streptococcus pneumoniae (GC 1894), broth dilution, 18 hours at 35° C.
[8] = Streptococcus pneumoniae (GC 4565), broth dilution, 18 hours at 35° C.
[9] = Streptococcus pneumoniae (ATCC 6301), broth dilution, 18 hours at 35° C.
[10] = Streptococcus pyogenes (GC 4563), broth dilution, 18 hours at 35° C.

CC(c1ccccc1)C1NC(=O)CNC(=O)C(CO)NC(=O)C(C(O)C2CN(Cc3ccccc3)C(=N)N2C2OC(CO)C(O)C(O)C2O)NC(=O)C(C(O)C2CNC(=N)N2)NC(=O)C(Cc2ccc(OC3OC(CO)C(OC4OC(CO)C(O)C(O)C4O)C(O)C3O)cc2)NC1=O (stereo not drawn) [Example 59, Cyclo[glycyl-β-methylphenylalanyl-O-(4-O-hexopyranosylhexopyranosyl)tyrosyl-(2-iminoimidazolidin-4-yl)seryl-3-[1-benzyl-3-hexopyranosyl-2-iminoimidazolidin-4-yl]serylseryl]]
MIC Streptococcus pneumoniae (GC 1894) [1, 7]: 64 µg/mL (≈ 46.2 µM)
MIC Streptococcus pneumoniae (GC 1894) ([1]; strain GC 1894): 64 µg/mL (≈ 46.2 µM)
median effective dose (ED50), Staphylococcus aureus-SMITH (GC 4543) [2]: >8
Anatomical Pathology (Day 10), Heart [3]: 0
Anatomical Pathology (Day 10), Kidney [3]: 0

CC(c1ccccc1)C1NC(=O)CNC(=O)C(CO)NC(=O)C(C(O)C2CN(Cc3ccc(C(C)(C)C)cc3)C(=N)N2C2OC(CO)C(O)C(O)C2O)NC(=O)C(C(O)C2CNC(=N)N2)NC(=O)C(Cc2ccc(OC3OC(CO)C(OC4OC(CO)C(O)C(O)C4O)C(O)C3O)cc2)NC1=O (stereo not drawn) [Example 60, Cyclo[glycyl-β-methylphenylalanyl-O-(4-O-hexopyranosylhexopyranosyl)tyrosyl-(2-iminoimidazolidin-4-yl)seryl-3-[1-(4-tert-butylbenzyl)-3-hexopyranosyl-2-iminoimidazolidin-4-yl]-serylseryl]]
MIC Escherichia coli (GC 4560) [4]: 16 µg/mL (≈ 11.1 µM)
MIC Streptococcus pneumoniae (GC 1894) [1, 7]: 64 µg/mL (≈ 44.4 µM)
MIC Streptococcus pneumoniae (GC 1894) ([1]; strain GC 1894): 64 µg/mL (≈ 44.4 µM)
median effective dose (ED50), Staphylococcus aureus-SMITH (GC 4543) [2]: >8
Anatomical Pathology (Day 10), Heart [3]: 0
Anatomical Pathology (Day 10), Kidney [3]: 0

CC(c1ccccc1)C1NC(=O)CNC(=O)C(CO)NC(=O)C(C(O)C2CN(CCCCCCCCCCCCO)C(=N)N2C2OC(CO)C(O)C(O)C2O)NC(=O)C(C(O)C2CNC(=N)N2)NC(=O)C(Cc2ccc(OC3OC(CO)C(OC4OC(CO)C(O)C(O)C4O)C(O)C3O)cc2)NC1=O (stereo not shown) [Example 61]
MIC Enterococcus avium (GC 4558) [5]: 64 µg/mL (≈ 43.3 µM)
MIC Escherichia coli (GC 4560) [4]: 8 µg/mL (≈ 5.41 µM)
MIC Streptococcus pneumoniae (GC 1894) [1, 7]: 64 µg/mL (≈ 43.3 µM)
MIC Streptococcus pneumoniae (GC 4565) [1, 8]: 64 µg/mL (≈ 43.3 µM)
MIC Streptococcus pneumoniae (GC 1894) ([1]; strain GC 1894): 64 µg/mL (≈ 43.3 µM)
MIC Streptococcus pneumoniae (GC 4565) ([1]; strain GC 4565): 64 µg/mL (≈ 43.3 µM)
median effective dose (ED50), Staphylococcus aureus-SMITH (GC 4543) [2]: >8
Anatomical Pathology (Day 10), Heart [3]: 0
Anatomical Pathology (Day 10), Kidney [3]: +++

CC(c1ccccc1)C1NC(=O)CNC(=O)C(CO)NC(=O)C(C(O)C2CN(Cc3ccccc3-c3ccccc3)C(=N)N2C2OC(CO)C(O)C(O)C2O)NC(=O)C(C(O)C2CNC(=N)N2)NC(=O)C(Cc2ccc(OC3OC(CO)C(OC4OC(CO)C(O)C(O)C4O)C(O)C3O)cc2)NC1=O (stereo not shown) [Example 65]
MIC Escherichia coli (GC 4560) [4]: 32 µg/mL (≈ 21.9 µM)
median effective dose (ED50), Staphylococcus aureus-SMITH (GC 4543) [2]: >8
Anatomical Pathology (Day 10), Heart [3]: 0
Anatomical Pathology (Day 10), Kidney [3]: +++

CC(c1ccccc1)C1NC(=O)CNC(=O)C(CO)NC(=O)C(C(O)C2CN(Cc3ccc(-c4ccccc4)cc3)C(=N)N2C2OC(CO)C(O)C(O)C2O)NC(=O)C(C(O)C2CNC(=N)N2)NC(=O)C(Cc2ccc(OC3OC(CO)C(OC4OC(CO)C(O)C(O)C4O)C(O)C3O)cc2)NC1=O (stereo not shown) [Example 66a]
MIC Escherichia coli (GC 4560) [4]: 8 µg/mL (≈ 5.47 µM)
median effective dose (ED50), Staphylococcus aureus-SMITH (GC 4543) [2]: >4
Anatomical Pathology (Day 10), Heart [3]: 0
Anatomical Pathology (Day 10), Kidney [3]: ++

CC(c1ccccc1)C1NC(=O)CNC(=O)C(CO)NC(=O)C(C(O)C2CN(Cc3ccc4ccccc4c3)C(=N)N2C2OC(CO)C(O)C(O)C2O)NC(=O)C(C(O)C2CNC(=N)N2)NC(=O)C(Cc2ccc(OC3OC(CO)C(OC4OC(CO)C(O)C(O)C4O)C(O)C3O)cc2)NC1=O (stereo not shown) [Example 67]
MIC Enterococcus avium (GC 4558) [5]: 64 µg/mL (≈ 44.6 µM)
MIC Escherichia coli (GC 4560) [4]: 32 µg/mL (≈ 22.3 µM)
MIC Streptococcus pneumoniae (GC 1894) [1, 7]: 64 µg/mL (≈ 44.6 µM)
MIC Streptococcus pneumoniae (GC 1894) ([1]; strain GC 1894): 64 µg/mL (≈ 44.6 µM)
median effective dose (ED50), Staphylococcus aureus-SMITH (GC 4543) [2]: >8
Anatomical Pathology (Day 10), Heart [3]: 0
Anatomical Pathology (Day 10), Kidney [3]: 0

CC(c1ccccc1)C1NC(=O)CNC(=O)C(CO)NC(=O)C(C(O)C2CN(CCCCCCCCCCC(=O)O)C(=N)N2C2OC(CO)C(O)C(O)C2O)NC(=O)C(C(O)C2CNC(=N)N2)NC(=O)C(Cc2ccc(OC3OC(CO)C(OC4OC(CO)C(O)C(O)C4O)C(O)C3O)cc2)NC1=O (stereo not drawn) [Example 72, Cyclo[glycyl-β-methylphenylalanyl-O-(4-O-hexopyranosylhexopyranosyl)tyrosyl-3-(2-iminoimidazolidin-4-yl)seryl-3-[1-(10-carboxydecyl)-3-hexopyranosyl-2-iminoimidazolidin-4-yl]serylseryl]]
MIC Enterococcus faecalis (GC 4553) [5]: 64 µg/mL (≈ 43.3 µM)
MIC Enterococcus avium (GC 4558) [5]: 64 µg/mL (≈ 43.3 µM)
MIC Escherichia coli (GC 4560) [4]: 32 µg/mL (≈ 21.6 µM)
MIC Streptococcus pneumoniae (ATCC 6301) [1, 9]: 64 µg/mL (≈ 43.3 µM)
MIC Streptococcus pneumoniae (GC 1894) [1, 7]: 16 µg/mL (≈ 10.8 µM)
MIC Streptococcus pneumoniae (GC 4565) [1, 8]: 64 µg/mL (≈ 43.3 µM)
MIC Streptococcus pyogenes (GC 4563) [1, 10]: 64 µg/mL (≈ 43.3 µM)
MIC Streptococcus pneumoniae (ATCC 6301) ([1]; strain ATCC 6301): 64 µg/mL (≈ 43.3 µM)
MIC Streptococcus pneumoniae (GC 1894) ([1]; strain GC 1894): 16 µg/mL (≈ 10.8 µM)
MIC Streptococcus pyogenes (GC 4563) ([1]; strain GC 4563): 64 µg/mL (≈ 43.3 µM)
MIC Streptococcus pneumoniae (GC 4565) ([1]; strain GC 4565): 64 µg/mL (≈ 43.3 µM)
median effective dose (ED50), Staphylococcus aureus-SMITH (GC 4543) [2]: >8
Anatomical Pathology (Day 10), Heart [3]: 0
Anatomical Pathology (Day 10), Kidney [3]: ++

CC(c1ccccc1)C1NC(=O)CNC(=O)C(CO)NC(=O)C(C(O)C2CN(Cc3ccc(C(C)(C)C)cc3)C(=N)N2C2OC(CO)C(O)C(O)C2O)NC(=O)C(C(O)C2CNC(=N)N2)NC(=O)C(Cc2ccc(OC3OC(CO)C(OC4OC5COC6(OC5C(O)C4O)C4CC5CC(C4)CC6C5)C(O)C3O)cc2)NC1=O (stereo not shown) [Example 77]
MIC Enterococcus faecalis (GC 2242) ([5]; Enterococcus faecalis (GC 2242), broth dilution, 18 hours at 35° C.): 16 µg/mL (≈ 10.2 µM)
MIC Enterococcus faecalis (GC 2691) ([5]; Enterococcus faecalis (GC 2691), broth dilution, 18 hours at 35° C.): 16 µg/mL (≈ 10.2 µM)
MIC Enterococcus faecalis (GC 3059) ([5]; Enterococcus faecalis (GC 3059), broth dilution, 18 hours at 35° C.): 16 µg/mL (≈ 10.2 µM)
MIC Enterococcus faecalis (ATCC 29212) ([5]; strain ATCC 29212): 16 µg/mL (≈ 10.2 µM)
MIC Enterococcus faecalis (GC 2242) ([5]; strain GC 2242): 16 µg/mL (≈ 10.2 µM)
MIC Enterococcus faecium (GC 2243) ([5]; strain GC 2243): 8 µg/mL (≈ 5.08 µM)
MIC Enterococcus faecalis (GC 2691) ([5]; strain GC 2691): 16 µg/mL (≈ 10.2 µM)
MIC Enterococcus faecalis (GC 3059) ([5]; strain GC 3059): 16 µg/mL (≈ 10.2 µM)
MIC Enterococcus faecalis (GC 4552) ([5]; strain GC 4552): 16 µg/mL (≈ 10.2 µM)
MIC Enterococcus faecalis (GC 4553) [5]: 8 µg/mL (≈ 5.08 µM)
MIC Enterococcus faecium (GC 4556) ([5]; strain GC 4556): 16 µg/mL (≈ 10.2 µM)
MIC Enterococcus faecium (GC 4557) ([5]; strain GC 4557): 1 to 2 µg/mL
MIC Enterococcus avium (GC 4558) [5]: 4 µg/mL (≈ 2.54 µM)
MIC Enterococcus faecalis (GC 6189) ([5]; strain GC 6189): 16 µg/mL (≈ 10.2 µM)
MIC Escherichia coli (GC 4560) [4]: 4 µg/mL (≈ 2.54 µM)
MIC Coagulase Negative Staphylococcus (GC 4547) [6]: 4 µg/mL (≈ 2.54 µM)
MIC Coagulase Negative Staphylococcus (GC 4548) [6]: 4 µg/mL (≈ 2.54 µM)
MIC Coagulase Negative Staphylococcus (GC 4549) [6]: 4 to 8 µg/mL
MIC Coagulase Negative Staphylococcus (GC 4551) [6]: 8 µg/mL (≈ 5.08 µM)
MIC Coagulase Negative Staphylococcus (GC 6257) [6]: 2 µg/mL (≈ 1.27 µM)
MIC Staphylococcus aureus (ATCC 29213) [6]: 8 to 16 µg/mL
MIC Staphylococcus aureus (GC 1131) [6]: 16 µg/mL (≈ 10.2 µM)
MIC Staphylococcus aureus (GC 3051) [6]: 8 to 16 µg/mL
MIC Staphylococcus aureus (GC 3053) [6]: 16 µg/mL (≈ 10.2 µM)
MIC Staphylococcus aureus (GC 4541) [6]: 4 to 8 µg/mL
MIC Staphylococcus aureus (GC 4542) [6]: 8 to 16 µg/mL
MIC Staphylococcus aureus (GC 4544) [6]: 16 µg/mL (≈ 10.2 µM)
MIC Staphylococcus aureus (GC 4545) [6]: 8 µg/mL (≈ 5.08 µM)
MIC Staphylococcus aureus SMITH (GC 4543) [6]: 8 µg/mL (≈ 5.08 µM)
MIC Staphylococcus haemolyticus (GC 4546) [6]: 4 to 8 µg/mL
MIC Staphylococcus aureus-SMITH (GC 4543) ([6]; strain SMITH GC 4543): 8 µg/mL (≈ 5.08 µM)
MIC Streptococcus agalactiae (GC 4564) ([1]; Streptococcus agalactiae (GC 4564), broth dilution, 18 hours at 35° C.): 1 µg/mL (≈ 0.635 µM)
MIC Streptococcus pneumoniae (ATCC 6301) [1, 9]: 2 µg/mL (≈ 1.27 µM)
MIC Streptococcus pneumoniae (GC 4565) [1, 8]: 2 to 4 µg/mL
MIC Streptococcus pyogenes (GC 4563) [1, 10]: 1 µg/mL (≈ 0.635 µM)
MIC Streptococcus pneumoniae (ATCC 6301) ([1]; strain ATCC 6301): 2 µg/mL (≈ 1.27 µM)
MIC Streptococcus pyogenes (GC 4563) ([1]; strain GC 4563): 1 µg/mL (≈ 0.635 µM)
MIC Streptococcus agalactiae (GC 4564) ([1]; strain GC 4564): 1 µg/mL (≈ 0.635 µM)
MIC Streptococcus pneumoniae (GC 4565) ([1]; strain GC 4565): 2 to 4 µg/mL
median effective dose (ED50), Staphylococcus aureus-SMITH (GC 4543) [2]: 4 mg/kg
Anatomical Pathology (Day 10), Heart [3]: 0
Anatomical Pathology (Day 10), Kidney [3]: 0

Source: patent US8247211B2, “Glycopeptide antibiotics” (American Cyanamid Company, priority 2001, dated 2012)
